Patent US10231958B2, “Methods and compositions for enhancing chemotherapy” (THE BOARD OF REGENTS OF THE UNIVERSITY OF TEXAS SYSTEM, priority 2015, dated 2019)

System: Intracellular glutathione levels
Assay: Glutathione assay
Type: cell-based
Description: Intracellular glutathione levels were measured using the Glutathione (GSH/GSSG/Total) Fluorometric Assay Kit (BioVision Incorporated, Calif.), following manufacturer protocol. Briefly, 1×10^6 cells were scraped in PBS and centrifuged. Pellets were resuspended in 100 μL Glutathione assay buffer. 60 μL of this homogenate was mixed with PCA (perchloric acid) and centrifuged. Supernatant containing small molecules including GSH were neutralized with KOH and 3 fractions were collected and separated to analyze reduced (GSH), oxidized (GSSG) and total glutathione forms (GSH+GSSG) by reaction with OPA probe (o-phthalaldehyde) in the presence or absence of GSH quencher or reducing agents depending on the compound to be determined. Fluorescence was monitored at Ex/Em=340/420 nm for 40 min. Glutathione forms were calculated and normalized by protein (Bradford's assay).

For `COS(C)(=O)=O` [MMS, methyl-methanesulfonate], the glutathione metabolites (higher levels of MMS, as early as 8 h) was “depleted glutathione metabolites” and the “total GSH” value (lower levels of MMS (40 μg/mL)) was “able to keep or even increase their total GSH”.
